Test results as given in US9212182B2, “Bicyclic sulfonamide compounds as sodium channel inhibitors” (AMGEN INC., priority 2013, dated 2015).

molecular target: Nav 1.7 (Homo sapiens (Human), UniProt Q15858); assay: in-vitro Nav 1.7 PX (IC50); type: cell-based; settings: not given
Sequence (Q15858 whole entry): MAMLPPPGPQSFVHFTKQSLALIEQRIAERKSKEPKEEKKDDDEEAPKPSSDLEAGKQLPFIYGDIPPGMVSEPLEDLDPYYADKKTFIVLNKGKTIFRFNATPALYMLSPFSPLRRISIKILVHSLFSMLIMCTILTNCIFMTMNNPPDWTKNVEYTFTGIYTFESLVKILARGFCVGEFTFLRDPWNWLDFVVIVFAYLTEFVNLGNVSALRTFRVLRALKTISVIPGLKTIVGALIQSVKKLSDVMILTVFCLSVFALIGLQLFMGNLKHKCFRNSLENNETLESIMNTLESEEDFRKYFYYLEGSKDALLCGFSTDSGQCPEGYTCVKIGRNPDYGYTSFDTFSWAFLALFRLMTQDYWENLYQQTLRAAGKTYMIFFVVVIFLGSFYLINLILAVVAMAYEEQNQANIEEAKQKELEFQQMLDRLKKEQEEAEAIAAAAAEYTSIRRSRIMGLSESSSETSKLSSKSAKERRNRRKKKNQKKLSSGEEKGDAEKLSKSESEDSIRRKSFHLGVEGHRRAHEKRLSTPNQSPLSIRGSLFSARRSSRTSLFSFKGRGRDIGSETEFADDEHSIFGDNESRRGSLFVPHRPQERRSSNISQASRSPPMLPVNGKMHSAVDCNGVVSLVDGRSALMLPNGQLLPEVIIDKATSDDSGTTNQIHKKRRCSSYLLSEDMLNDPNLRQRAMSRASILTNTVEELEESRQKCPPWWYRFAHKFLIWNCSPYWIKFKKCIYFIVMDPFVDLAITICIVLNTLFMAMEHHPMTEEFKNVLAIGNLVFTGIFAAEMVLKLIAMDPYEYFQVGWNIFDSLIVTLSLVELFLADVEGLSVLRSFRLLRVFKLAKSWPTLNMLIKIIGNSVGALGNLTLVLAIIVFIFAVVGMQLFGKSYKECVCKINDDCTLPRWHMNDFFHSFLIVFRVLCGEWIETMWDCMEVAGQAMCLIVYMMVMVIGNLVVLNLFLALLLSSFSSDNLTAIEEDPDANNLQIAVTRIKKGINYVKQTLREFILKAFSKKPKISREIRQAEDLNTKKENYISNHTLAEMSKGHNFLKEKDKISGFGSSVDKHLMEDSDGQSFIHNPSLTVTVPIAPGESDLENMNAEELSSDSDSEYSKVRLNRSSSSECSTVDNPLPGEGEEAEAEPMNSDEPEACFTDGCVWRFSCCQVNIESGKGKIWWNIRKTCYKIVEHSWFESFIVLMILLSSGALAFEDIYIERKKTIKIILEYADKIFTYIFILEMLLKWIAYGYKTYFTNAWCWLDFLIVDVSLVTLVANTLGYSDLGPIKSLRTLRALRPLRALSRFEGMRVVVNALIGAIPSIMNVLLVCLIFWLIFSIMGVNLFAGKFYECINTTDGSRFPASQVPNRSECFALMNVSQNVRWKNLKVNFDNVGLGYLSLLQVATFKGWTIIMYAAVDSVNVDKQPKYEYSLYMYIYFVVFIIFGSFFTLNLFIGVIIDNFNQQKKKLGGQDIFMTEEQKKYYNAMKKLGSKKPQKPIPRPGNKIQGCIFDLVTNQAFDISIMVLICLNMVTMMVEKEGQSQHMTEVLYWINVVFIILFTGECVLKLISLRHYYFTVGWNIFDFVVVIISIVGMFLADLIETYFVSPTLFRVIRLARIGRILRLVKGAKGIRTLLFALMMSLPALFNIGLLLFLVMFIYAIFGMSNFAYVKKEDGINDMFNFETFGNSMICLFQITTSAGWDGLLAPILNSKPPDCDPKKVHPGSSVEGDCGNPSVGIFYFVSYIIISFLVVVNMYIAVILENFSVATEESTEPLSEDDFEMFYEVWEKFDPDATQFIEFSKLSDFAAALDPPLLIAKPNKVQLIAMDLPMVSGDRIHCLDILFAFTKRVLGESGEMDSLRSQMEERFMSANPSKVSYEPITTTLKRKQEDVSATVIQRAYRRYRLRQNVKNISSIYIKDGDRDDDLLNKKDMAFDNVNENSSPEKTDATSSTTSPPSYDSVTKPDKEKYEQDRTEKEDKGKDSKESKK

Going from `COc1cc(-c2cc(F)cc(Cl)c2)c(F)cc1-n1c(=O)ccc2cc(S(=O)(=O)Nc3ncccn3)ccc21` (atropisomer, axis not shown; (P)) [Example 541, (P)-1-(3′-chloro-2,5′-difluoro-5-methoxy-4-biphenylyl)-2-oxo-N-2-pyrimidinyl-1,2-dihydro-6-quinolinesulfonamide] to `COc1cc(-c2cccc(Cl)c2)c(Cl)cc1-n1c(=O)ccc2cc(S(=O)(=O)Nc3ccon3)ccc21` (atropisomer, axis not shown; (M)) [Example 460, (M)-1-(2,3′-dichloro-5-methoxy-[1,1′-biphenyl]-4-yl)-N-(isoxazol-3-yl)-2-oxo-1,2-dihydroquinoline-6-sulfonamide], the IC50 rises from 18 nM to 1760 nM (98-fold). The first is the more potent here.

`COc1nc(NC[C@H]2CCC(C)(C)O2)c(Cl)cc1-n1c(=O)ccc2cc(S(=O)(=O)Nc3ccon3)ccc21` [Example 1232, 1-(5-chloro-6-((((2R)-5,5-dimethyltetrahydro-2-furanyl)methyl)amino)-2-methoxy-3-pyridinyl)-N-3-isoxazolyl-2-oxo-1,2-dihydro-6-quinolinesulfonamide, 1-(5-chloro-6-((((2S)-5,5-dimethyltetrahydro-2-furanyl)methyl)amino)-2-methoxy-3-pyridinyl)-N-3-isoxazolyl-2-oxo-1,2-dihydro-6-quinolinesulfonamide] and `COc1cc(C2CC2)ccc1-n1c(=O)ccc2cc(S(=O)(=O)Nc3ccon3)ccc21` (atropisomer, axis not shown; (P)) [Example 1210, (P)-1-(4-cyclopropyl-2-methoxyphenyl)-N-3-isoxazolyl-2-oxo-1,2-dihydro-6-quinolinesulfonamide] are within 1.5-fold of each other in IC50: 2940 nM for the first, 2370 nM for the second.

Molecule `COc1cc(-c2cccc(F)c2)c(Cl)cc1-n1c(=O)cc(C)c2cc(S(=O)(=O)Nc3ccon3)ccc21` [Example 567, 1-(2-chloro-3′-fluoro-5-methoxy-4-biphenylyl)-N-3-isoxazolyl-4-methyl-2-oxo-1,2-dihydro-6-quinolinesulfonamide] has an IC50 of 162 nM.

same assay, conditions: in-vitro Nav 1.7 PX data

`COc1cc(-c2cccc(C(F)(F)F)c2)c(F)cc1-n1c(=O)ccc2cc(S(=O)(=O)Nc3ccon3)c(F)cc21` [Example 980, 7-fluoro-1-(2-fluoro-5-methoxy-3′-(trifluoromethyl)-4-biphenylyl)-N-3-isoxazolyl-2-oxo-1,2-dihydro-6-quinolinesulfonamide] and `COc1cc(-c2ccc(C)c(C)c2)c(F)cc1-n1c(=O)ccc2cc(S(=O)(=O)Nc3ccon3)ccc21` [Example 704, 1-(2-fluoro-5-methoxy-3′,4′-dimethyl-4-biphenylyl)-N-3-isoxazolyl-2-oxo-1,2-dihydro-6-quinolinesulfonamide] are within 1.5-fold of each other in IC50: 22 nM for the first, 16 nM for the second.

Compared with `COc1cc(-c2cc(OC)c(-n3c(=O)ccc4cc(S(=O)(=O)Nc5ncccn5)ccc43)cc2C)ccc1C` [Example 966, 1-(3′,5-dimethoxy-2,4′-dimethyl-4-biphenylyl)-2-oxo-N-2-pyrimidinyl-1,2-dihydro-6-quinolinesulfonamide], `COc1cc(-c2cc(OC)c(-n3c(=O)ccc4cc(S(=O)(=O)Nc5ncco5)ccc43)cc2F)ccc1F` [Example 1011, 1-(2,4′-difluoro-3′,5-dimethoxy-4-biphenylyl)-N-1,3-oxazol-2-yl-2-oxo-1,2-dihydro-6-quinolinesulfonamide] is 3.2-fold higher in IC50: 64 nM for the first, 207 nM for the second.

`COc1cc(C#CC(F)(F)F)c(F)cc1-n1c(=O)ccc2cc(S(=O)(=O)Nc3ccon3)ccc21` [Example 644, 1-(5-fluoro-2-methoxy-4-(3,3,3-trifluoro-1-PROPYN-1-yl)phenyl)-N-3-isoxazolyl-2-oxo-1,2-dihydro-6-quinolinesulfonamide] and `COc1cc(Br)c(F)cc1-n1c(=O)ccc2cc(S(=O)(=O)Nc3ccon3)ccc21` [Example 1105, 1-(4-bromo-5-fluoro-2-methoxyphenyl)-N-3-isoxazolyl-2-oxo-1,2-dihydro-6-quinolinesulfonamide] are within 1.5-fold of each other in IC50: 387 nM for the first, 307 nM for the second.

First: COc1cc(-c2cc(OC)c(-n3c(=O)ccc4cc(S(=O)(=O)Nc5ccon5)ccc43)cc2F)ccc1Cl [Example 700, 1-(4′-chloro-2-fluoro-3′,5-dimethoxy-4-biphenylyl)-N-3-isoxazolyl-2-oxo-1,2-dihydro-6-quinolinesulfonamide]
Second: COc1cc(-c2ccc(-n3c(=O)ccc4cc(S(=O)(=O)Nc5ccon5)ccc43)c(OC)c2)ccc1Cl [Example 1027, 1-(4′-chloro-3,3′-dimethoxy-4-biphenylyl)-N-3-isoxazolyl-2-oxo-1,2-dihydro-6-quinolinesulfonamide]
The IC50 of the first is 6.4-fold lower: 5 nM for the first, 32 nM for the second. The first is the more potent here.

`COc1cc(-c2cccc(OC(C)C)c2)ccc1-n1c(=O)ccc2cc(S(=O)(=O)Nc3ccon3)ccc21` [Example 780, N-3-isoxazolyl-1-(3-methoxy-3′-(1-methylethoxy)-4-biphenylyl)-2-oxo-1,2-dihydro-6-quinolinesulfonamide] and `COc1cc(-c2cccc(F)c2)ccc1-n1c(=O)ccc2cc(S(=O)(=O)Nc3ccon3)ccc21` [Example 818, 1-(3′-fluoro-3-methoxy-4-biphenylyl)-N-3-isoxazolyl-2-oxo-1,2-dihydro-6-quinolinesulfonamide] are within 1.5-fold of each other in IC50: 26 nM for the first, 38 nM for the second.

First: COc1cc(-c2cc(F)cc(C(F)(F)F)c2)ccc1-n1c(=O)ccc2cc(S(=O)(=O)Nc3cnccn3)ccc21 [Example 1094, 1-(3′-fluoro-3-methoxy-5′-(trifluoromethyl)-4-biphenylyl)-2-oxo-N-2-pyrazinyl-1,2-dihydro-6-quinolinesulfonamide]
Second: COc1cc(-c2cc(C)cc(F)c2)ccc1-n1c(=O)ccc2cc(S(=O)(=O)Nc3ccon3)ccc21 [Example 1015, 1-(3′-fluoro-3-methoxy-5′-methyl-4-biphenylyl)-N-3-isoxazolyl-2-oxo-1,2-dihydro-6-quinolinesulfonamide]
The IC50 of the first is 5.8-fold higher: 69 nM for the first, 12 nM for the second.

First: COc1nc(NC2CCCC2)c(Cl)cc1-n1c(=O)ccc2cc(S(=O)(=O)Nc3ccon3)ccc21 [Example 648, 1-(5-chloro-6-(cyclopentylamino)-2-methoxy-3-pyridinyl)-N-3-isoxazolyl-2-oxo-1,2-dihydro-6-quinolinesulfonamide]
Second: COc1nc(OCC2(C)CC2)c(Cl)cc1-n1c(=O)ccc2cc(S(=O)(=O)Nc3ccon3)ccc21 [Example 822, 1-(5-chloro-2-methoxy-6-((1-methylcyclopropyl)methoxy)-3-pyridinyl)-N-3-isoxazolyl-2-oxo-1,2-dihydro-6-quinolinesulfonamide]
The IC50 of the first is 2.1-fold higher: 984 nM for the first, 460 nM for the second.

First: COc1cc(-c2ccccc2F)c(F)cc1-n1c(=O)ccc2cc(S(=O)(=O)Nc3ccon3)ccc21 [Example 951, 1-(2,2′-difluoro-5-methoxy-4-biphenylyl)-N-3-isoxazolyl-2-oxo-1,2-dihydro-6-quinolinesulfonamide]
Second: COc1cc(-c2cccc(Cl)c2F)c(F)cc1-n1c(=O)ccc2cc(S(=O)(=O)Nc3ccon3)ccc21 [Example 703, 1-(3′-chloro-2,2′-difluoro-5-methoxy-4-biphenylyl)-N-3-isoxazolyl-2-oxo-1,2-dihydro-6-quinolinesulfonamide]
The IC50 of the first is 18-fold higher: 90 nM for the first, 5 nM for the second. The second is the more potent here.

Compared with `COc1cc(-c2cccc(OC(F)(F)F)c2)ccc1-n1c(=O)ccc2cc(S(=O)(=O)Nc3ccon3)ccc21` [Example 781, N-3-isoxazolyl-1-(3-methoxy-3′-(trifluoromethoxy)-4-biphenylyl)-2-oxo-1,2-dihydro-6-quinolinesulfonamide], `COc1ccc(-c2ccc(Cl)cc2)cc1-n1c(=O)ccc2cc(S(=O)(=O)Nc3ccon3)ccc21` [Example 857, 1-(4′-chloro-4-methoxy-3-biphenylyl)-N-3-isoxazolyl-2-oxo-1,2-dihydro-6-quinolinesulfonamide] is 2-fold higher in IC50: 10 nM for the first, 20 nM for the second.

`COc1cc(-c2ccc(Cl)c(C)c2)c(F)cc1-n1c(=O)ccc2cc(S(=O)(=O)Nc3cscn3)ccc21` [Example 932, 1-(4′-chloro-2-fluoro-5-methoxy-3′-methyl-4-biphenylyl)-2-oxo-N-1,3-thiazol-4-yl-1,2-dihydro-6-quinolinesulfonamide] and `COc1cc(F)cc(-c2ccc(-n3c(=O)ccc4cc(S(=O)(=O)Nc5ncc(F)cn5)ccc43)c(OC)c2)c1` [Example 998, 1-(3′-fluoro-3,5′-dimethoxy-4-biphenylyl)-N-(5-fluoro-2-pyrimidinyl)-2-oxo-1,2-dihydro-6-quinolinesulfonamide] are within 1.5-fold of each other in IC50: 78 nM for the first, 89 nM for the second.

same assay, conditions: in-vitro Nav 1.7 PX data (PatchXpress)

Compared with `O=c1ccc2cc(S(=O)(=O)Nc3ccon3)ccc2n1-c1cc(F)c(-c2cc(F)cc(F)c2)cc1O` [Example 624, N-(isoxazol-3-yl)-2-oxo-1-(2,3′,5′-trifluoro-5-hydroxy-[1,1′-biphenyl]-4-yl)-1,2-dihydroquinoline-6-sulfonamide], `COc1ccc(C)cc1-c1ccc(-n2c(=O)ccc3cc(S(=O)(=O)Nc4ccon4)ccc32)c(OC)c1` [Example 1036, 1-(2′,3-dimethoxy-5′-methyl-4-biphenylyl)-N-3-isoxazolyl-2-oxo-1,2-dihydro-6-quinolinesulfonamide] is 86-fold lower in IC50: 1730 nM for the first, 20 nM for the second. The second is the more potent here.

`COc1cc(-c2cc(Cl)ccc2C)ccc1-n1c(=O)ccc2cc(S(=O)(=O)Nc3ncco3)ccc21` [Example 1067, 1-(5′-chloro-3-methoxy-2′-methyl-4-biphenylyl)-N-1,3-oxazol-2-yl-2-oxo-1,2-dihydro-6-quinolinesulfonamide] showed an IC50 of 6 nM.

same assay, conditions: in-vitro PatchXpress (PX)

Going from `COc1cc(-c2cccc(C(F)(F)F)c2)ccc1-n1c(=O)ccc2cc(S(=O)(=O)Nc3cccnn3)ccc21` (atropisomer, axis not shown; (P)) [Example 369, (P)-1-(3-methoxy-3′-(trifluoromethyl)-4-biphenylyl)-2-oxo-N-3-pyridazinyl-1,2-dihydro-6-quinolinesulfonamide] to `COc1cc(-c2cncc(Cl)c2)c(F)cc1-n1c(=O)ccc2cc(S(=O)(=O)Nc3ccon3)ccc21` (atropisomer, axis not shown; (M)) [Example 409, (M)-1-(4-(5-chloro-3-pyridinyl)-5-fluoro-2-methoxyphenyl)-N-3-isoxazolyl-2-oxo-1,2-dihydro-6-quinolinesulfonamide], the IC50 rises from 16 nM to 60 nM (3.8-fold).

`COc1cc(Cl)cc(-c2cc(OC)c(-n3c(=O)ccc4cc(S(=O)(=O)Nc5ccon5)ccc43)cc2F)c1` (atropisomer, axis not shown; (M)) [Example 502, (M)-1-(3′-chloro-2-fluoro-5,5′-dimethoxy-4-biphenylyl)-N-3-isoxazolyl-2-oxo-1,2-dihydro-6-quinolinesulfonamide] gave an IC50 of 1230 nM.
